Series [1] is described as follows: Stability of analytes in stock solution. It counts as physicochemical. The settings on record: stock solutions stored at room temperature for 4 h, n = 3. Here is the method:
The primary stock solutions of E, EG, C, CG, P, PG, and IS were prepared in dimethyl sulfoxide at a concentration of 1 mg/mL and stored at −80 °C. The mixture stock solutions to obtain the standard solutions were serially diluted in methanol. The IS stock solution of 5 ng/mL was prepared in methanol. The calibration standards were prepared by spiking 10 μL of above standard solutions into 90 μL of blank rat plasma to yield concentration ranges of 1–300 ng/mL for E, 20–300 ng/mL for P and C, 1–150 ng/mL for EG, 10–150 ng/mL for CG and PG. Twenty microliters of aliquots were prepared and stored at −80 °C until analysis.
(§1) The stability of the analytes in rat plasma was evaluated by analyzing triplicates of three QC levels at room temperature for 4 h (short-term stability), −80 °C for one month (long-term stability), three freeze-thaw cycles from −80 °C to room temperature (freeze and thaw stability), and 4 °C for 24 h (processed sample stability). The stability of analytes in stock solution was also evaluated. The peak areas obtained from freshly prepared stock solutions were compared with stock solutions stored for 4 h at room temperature.

Series [2] is described as follows: Pharmacokinetic study after oral administration of R. acetosa extract to rats. The settings on record: oral R. acetosa extract 2 g/kg; for MRT / half-life / Cmax / AUC(0-t): n = 3, mean ± SD; for Cmax / AUC(0-t): rat plasma; for AUC(0-t): last measured time points for C, E, CG, PG 6, 24, 8, 6 h. The series is classed as in vivo, Sprague‒Dawley rats. Here is the method: The analysis was performed on an Agilent 1260 series (Agilent Technologies, Waldbronn, Germany) HPLC system. Chromatographic separation of the samples was carried out on a Kinetex Biphenyl column (100 × 3.0 mm, 2.6 μm, 110 Å, Phenomenex, Torrance, CA, USA). The mobile phase consisted of 2 mM ammonium formate (pH 6) in water (A) and 2 mM ammonium formate (pH 6) in methanol (B). The gradient program was used at a flow rate of 0.3 mL/min while maintaining the column temperature at 40 °C. The mobile phase initial composition of 25% B was maintained for 2 min. It was then increased linearly from 25% to 95% B for 0.5 min and held for 7 min. The gradient was then changed back to the initial condition for 0.5 min and kept at the initial condition for 3 min. The total analysis time was 13 min for each sample. The injection volume was 15 μL.
The mass spectrometric detection was performed on an Agilent 6460 triple-quadruple mass spectrometer (Agilent Technologies, Singapore) with an electrospray ionization source. It was operated in the negative ion detection mode because of its higher sensitivity than that in the positive ionization mode on multiple reaction monitoring (MRM). The data were acquired and processed using Mass Hunter Workstation B.06.00 software (Agilent Technologies, Singapore). The source parameters were also optimized as follows: a drying gas flow and temperature at 6 L/min and 350 °C were used, respectively; the sheath gas flow and temperature were maintained at 12 L/min and 350 °C, respectively; the nebulizing gas (N2) pressure was set at 25 psi; and the capillary and nozzle voltages were set at 3500 V and 500 V, respectively.
To 20 μL aliquot of the rat plasma samples, 60 μL of 5 ng/mL IS in methanol was added. The mixture was vortexed for 30 s and kept at 4 °C for 30 min. The mixture was centrifuged at 10,000× g for 10 min. The supernatant was transferred to an HPLC vial, and 15 μL of the processed sample was injected onto the LC-MS/MS system.
Male Sprague‒Dawley rats (8-week-old, weighing 250 ± 10 g) were obtained from Koatech (Pyeongtaek, Korea). They were housed and acclimated in the Animal Laboratory, Gyeongsang National University, under controlled temperature and humidity and regular 12 h light cycle, freely accessible to food and water for 7 days before the experiment. The rats were cannulated into the carotid artery and allowed to recover for one day. Before the pharmacokinetic study, all rats were fasted for 12 h with free access to water. R. acetosa extract suspended in a solution (ethanol:polysorbate 80:water = 1:2:7, v/v/v) was orally administered to the three rats at a dose of 2 g/kg. The calculated doses of compounds based on the contents in the extract were 18.8, 25.8, 13.6, 15.4, 3.4, and 8.2 mg/kg for E, EG, C, CG, P, and PG, respectively. Blood samples (100 µL) were collected via the cannulated carotid vessel at 0, 15, 30, 45 min, 1, 2, 3, 4, 6, 8, 12, and 24 h after oral administration. To collect plasma, the blood samples were immediately centrifuged at 10,000× g for 5 min. All plasma samples were stored at −80 °C until analysis. All experimental procedures of the animal study were approved (GNU-130618-R0038) by the Animal Care and Use Committee of Gyeongsang National University, Korea.

The nature of series [3]: Stability of the analytes in rat plasma (method validation). It counts as in vitro ADME. The settings on record: n = 3; for Processed Sample Stability, Accuracy: processed rat plasma sample, 4 °C 24 h; for Short Term Stability, Accuracy / Freeze and Thaw Stability, Accuracy / Long Term Stability, Accuracy: rat plasma; for Short Term Stability, Accuracy: room temperature 4 h; for Freeze and Thaw Stability, Accuracy: three freeze-thaw cycles −80 °C to room temperature; for Long Term Stability, Accuracy: −80 °C one month. Here is the method:
as §1

[4] abbreviates: male, Sprague-Dawley, plasma, rat.
The mark [5] stands for this setting: high QC (P, E, C 300; PG, EG, CG 150 ng/mL).
[6] abbreviates: low QC (P, C 60; E, EG 3; PG, CG 30 ng/mL).
Where [7] appears, read: middle QC (P, E, C 150; PG, EG, CG 75 ng/mL).
[8] abbreviates: male, Sprague-Dawley, plasma, rat, n = 3, median (range), read-out: Tmax.

Each structure is given as a SMILES string. Like-named read-outs stand apart in the source and are kept apart here.

In the case of `Cc1cc(O)c2c(c1)C(=O)c1cccc(O)c1C2=O` [C, chrysophanol], the “mean concentration in stock solution compared with fresh stock solutions” value in series [1] was determined as 95.9%. Also, in series [2] (setting [4]), the MRT (commonly the average time that molecules of a dose stay in the body) is 2.4 ± 0.2 h and the half-life (as a rule, the time in which the quantity being followed falls by half) is 3.9 ± 0.6 h. Moreover, the Tmax in series [2] (male, Sprague-Dawley, plasma, rat, read-out: Median Tmax (converted)) is 0.25 h. In addition, in series [2] (male, Sprague-Dawley), the concentration peaked (Cmax) at 156 ± 86 ng/mL and the exposure AUC(0-t) (usually the area under the concentration-time curve up to a stated or last time point) came out at 266 ± 70.9 ng·h/mL. Also, in series [2] (rat), the “first time detected in plasma of every rat (first sampling time)” value (“first time detected in plasma” for short) stood at 15 min and the “time from which plasma concentrations were below the LLOQ” value turned out to be 6 h. In addition, the Tmax in series [2] (rat, n = 3, median (range)) is on record as 0.25 (0.25–0.5) h. Moreover, in series [3] (setting [5]), the “Processed Sample Stability, Accuracy” value was found to be 102.3%; the “Short Term Stability, Accuracy” value is recorded as 101.2%; the “Freeze and Thaw Stability, Accuracy” value came out at 92.4%; the “Long Term Stability, Accuracy” value is 102.6%. Moreover, in series [3] (setting [6]), the “Processed Sample Stability, Accuracy” value stood at 101.5%; the “Short Term Stability, Accuracy” value is recorded as 103.5%; the “Freeze and Thaw Stability, Accuracy” value is listed as 89.7%; the “Long Term Stability, Accuracy” value came out at 104.3%. Moreover, in series [3] (setting [7]), the “Processed Sample Stability, Accuracy” value is 103.7%; the “Short Term Stability, Accuracy” value was determined as 98.6%; the “Freeze and Thaw Stability, Accuracy” value is reported as 91.8%; the “Long Term Stability, Accuracy” value worked out at 97.9%.

Consider `COc1cc(O)c2c(c1)C(=O)c1cc(C)cc(O)c1C2=O` [P, physcion], for which the “mean concentration in stock solution compared with fresh stock solutions” value in series [1] stood at 99.2%. The “plasma concentrations (in words)” value in series [2] (rat) is listed as “not high enough to determine the pharmacokinetic parameters”. In series [3] (setting [5]), the “Processed Sample Stability, Accuracy” value stood at 102.7%; the “Short Term Stability, Accuracy” value was 103.8%; the “Freeze and Thaw Stability, Accuracy” value amounted to 104.2%; the “Long Term Stability, Accuracy” value is listed as 98.0%. Further, in series [3] (setting [6]), the “Processed Sample Stability, Accuracy” value came out at 102.2%; the “Short Term Stability, Accuracy” value is on record as 104.9%; the “Freeze and Thaw Stability, Accuracy” value is given as 103.6%; the “Long Term Stability, Accuracy” value was 107.3%. Further, in series [3] (setting [7]), the “Processed Sample Stability, Accuracy” value is 101.6%; the “Short Term Stability, Accuracy” value is 98.9%; the “Freeze and Thaw Stability, Accuracy” value worked out at 103.9%; the “Long Term Stability, Accuracy” value stood at 100.1%.

On to `Cc1cc(O)c2c(c1)C(=O)c1cccc(O[C@@H]3O[C@H](CO)[C@@H](O)[C@H](O)[C@H]3O)c1C2=O` [CG, chrysophanol-8-O-β-D-glucoside], for which, in series [1], the “mean concentration in stock solution compared with fresh stock solutions” value stood at 101.7%. Further, in series [2] (setting [4]), the MRT is 2.4 ± 0.08 h and the half-life was 4.8 ± 0.5 h. Moreover, the Tmax in series [2] (setting [8]) turned out to be 2 h. Further, in series [2] (male, Sprague-Dawley), the highest concentration (Cmax) – broadly, the highest concentration seen after dosing – amounted to 28.7 ± 4.7 ng/mL and the area under the curve AUC(0-t) came to 158 ± 12.3 ng·h/mL. For the same molecule, in series [2] (rat), the “first time detected in plasma” value came to 15 min and the “time until which the analyte could be detected in plasma” value was determined as 8 h. In addition, in series [3] (setting [5]), the “Processed Sample Stability, Accuracy” value worked out at 96.7%; the “Short Term Stability, Accuracy” value was found to be 101.8%; the “Freeze and Thaw Stability, Accuracy” value was 97.0%; the “Long Term Stability, Accuracy” value is 101.5%. In series [3] (setting [6]), the “Processed Sample Stability, Accuracy” value was found to be 91.1%; the “Short Term Stability, Accuracy” value is 97.6%; the “Freeze and Thaw Stability, Accuracy” value was 98.3%; the “Long Term Stability, Accuracy” value was 97.5%. Also, in series [3] (setting [7]), the “Processed Sample Stability, Accuracy” value is 100.2%; the “Short Term Stability, Accuracy” value amounted to 96.9%; the “Freeze and Thaw Stability, Accuracy” value was found to be 101.0%; the “Long Term Stability, Accuracy” value is recorded as 100.6%.

With `COc1cc(O[C@@H]2O[C@H](CO)[C@@H](O)[C@H](O)[C@H]2O)c2c(c1)C(=O)c1cc(C)cc(O)c1C2=O` [PG, physcion-8-O-β-D-glucoside], the “mean concentration in stock solution compared with fresh stock solutions” value in series [1] was 102.4%. For the same molecule, in series [2] (setting [4]), the MRT is 2.7 ± 0.6 h and the half-life was 6.2 ± 3.9 h. Also, the Tmax in series [2] (setting [8]) is 0.75 h. In series [2] (male, Sprague-Dawley), this molecule registered a maximum concentration (Cmax) of 20.5 ± 1.4 ng/mL and an AUC(0-t) of 82.8 ± 13.8 ng·h/mL. Besides, in series [2] (rat), the “first time detected in plasma” value stood at 15 min and the “time from which plasma concentrations were below the LLOQ” value stood at 6 h. For the same molecule, in series [3] (setting [5]), the “Processed Sample Stability, Accuracy” value was determined as 96.8%; the “Short Term Stability, Accuracy” value was found to be 96.7%; the “Freeze and Thaw Stability, Accuracy” value came to 93.6%; the “Long Term Stability, Accuracy” value is on record as 97.1%. In series [3] (setting [6]), the “Processed Sample Stability, Accuracy” value stood at 98.8%; the “Short Term Stability, Accuracy” value stood at 98.9%; the “Freeze and Thaw Stability, Accuracy” value turned out to be 101.5%; the “Long Term Stability, Accuracy” value came to 97.7%. Moreover, in series [3] (setting [7]), the “Processed Sample Stability, Accuracy” value worked out at 92.7%; the “Short Term Stability, Accuracy” value turned out to be 91.8%; the “Freeze and Thaw Stability, Accuracy” value is given as 94.3%; the “Long Term Stability, Accuracy” value turned out to be 98.5%.
